# Source: PubChem BioAssay (NCI)
#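 Growth conditions: 96-well plates. Treatment: test compound, 48 hours, 5 concentrations. Analysis: linear interpolation between bracketing concentrations; unreached endpoints set to highest concentration. Here, GI50 denotes the concentration required for 50% inhibition of growth. Definition used: TGI = concentration required for complete inhibition of growth.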
# What was measured:
# Assay in all cases: NCI tumour cell line growth inhibition, 48 h
# [1] = test system: SK-MEL-5 melanoma
# [2] = test system: UACC-257 melanoma
# [3] = test system: UACC-62 melanoma
# [4] = test system: SW-620 colon
# [5] = test system: SK-MEL-28 melanoma
# [6] = test system: IGROV1 ovarian
# [7] = test system: SF-539 CNS
# [8] = test system: SK-OV-3 ovarian
# [9] = test system: K-562 leukemia
# [10] = test system: HS 578T breast
# [11] = test system: SNB-75 CNS
# [12] = test system: A498 renal
# [13] = test system: MDA-MB-231 breast
# [14] = test system: NCI/ADR-RES ovarian
# [15] = test system: 786-0 renal
# [16] = test system: SR leukemia
# [17] = test system: BT-549 breast
# [18] = test system: TK-10 renal
# [19] = test system: HL-60(TB) leukemia
# [20] = test system: HCT-15 colon
# [21] = test system: MDA-MB-435
# [22] = test system: OVCAR-3 ovarian
# [23] = test system: NCI-H23 lung
# [24] = test system: RXF 393 renal
# [25] = test system: OVCAR-4 ovarian
# [26] = test system: KM12 colon
# [27] = test system: HCC-2998 colon
# [28] = test system: U251 CNS
# [29] = test system: HCT-116 colon
# [30] = test system: OVCAR-5 ovarian
# [31] = test system: SN12C renal
# [32] = test system: A549 NSCLC
# [33] = test system: NCI-H460 lung
# [34] = test system: T-47D breast
# [35] = test system: RPMI-8226 leukemia
# [36] = test system: MALME-3M melanoma
# [37] = test system: HT29 colon
# [38] = test system: SF-295 CNS
# [39] = test system: COLO 205 colon
# [40] = test system: MCF7 breast
# [41] = test system: NCI-H226 lung
# [42] = test system: MOLT-4 leukemia
# [43] = test system: OVCAR-8 ovarian
# [44] = test system: LOX IMVI melanoma
# [45] = test system: PC-3 prostate
# [46] = test system: HOP-62 NSCLC
# [47] = test system: SNB-19 CNS
# [48] = test system: UO-31 renal
# [49] = test system: HOP-92 NSCLC
# [50] = test system: M14 melanoma
# [51] = test system: NCI-H522 lung
# [52] = test system: SF-268 CNS
# [53] = test system: SK-MEL-2 melanoma
# [54] = test system: DU-145 prostate
# [55] = test system: CAKI-1 renal
# [56] = test system: ACHN renal
# [57] = test system: CCRF-CEM leukemia
smiles,measurement,setting,value
COc1ccc(C2C=C(c3ccc(OC)c(OC)c3)N=C3SC=CN32)c(Br)c1 (stereo unspecified),GI50,[1],3.02 µM
same,TGI,[1],10.1 µM
same,GI50,[2],2.98 µM
same,TGI,[2],12 µM
same,GI50,[3],2.47 µM
same,TGI,[3],7.06 µM
same,GI50,[4],1.85 µM
same,TGI,[4],3.77 µM
same,GI50,[5],2.3 µM
same,TGI,[5],5.62 µM
same,GI50,[6],2.25 µM
same,TGI,[6],5.51 µM
same,GI50,[7],1.87 µM
same,TGI,[7],4.18 µM
same,GI50,[8],4.52 µM
same,TGI,[8],16.7 µM
same,GI50,[9],2.82 µM
same,TGI,[9],> 100 µM
same,GI50,[10],3.41 µM
same,TGI,[10],> 100 µM
same,GI50,[11],3.1 µM
same,TGI,[11],14.3 µM
same,GI50,[12],3.47 µM
same,TGI,[12],17.1 µM
same,GI50,[13],4.5 µM
same,TGI,[13],21.3 µM
same,GI50,[14],4.59 µM
same,TGI,[14],61.2 µM
same,GI50,[15],2.72 µM
same,TGI,[15],8.22 µM
same,GI50,[16],1.95 µM
same,TGI,[16],4.79 µM
same,GI50,[17],2.1 µM
same,TGI,[17],5.71 µM
same,GI50,[18],3.64 µM
same,TGI,[18],15.3 µM
same,GI50,[19],3.06 µM
same,TGI,[19],23 µM
same,GI50,[20],1.76 µM
same,TGI,[20],5.13 µM
same,GI50,[21],2.8 µM
same,TGI,[21],10.5 µM
same,GI50,[22],2.24 µM
same,TGI,[22],4.91 µM
same,GI50,[23],9.45 µM
same,TGI,[23],27.3 µM
same,GI50,[24],2.08 µM
same,TGI,[24],3.98 µM
same,GI50,[25],7.1 µM
same,TGI,[25],49.4 µM
same,GI50,[26],1.83 µM
same,TGI,[26],3.5 µM
same,GI50,[27],2.02 µM
same,TGI,[27],3.71 µM
same,GI50,[28],1.6 µM
same,TGI,[28],3.24 µM
same,GI50,[29],1.52 µM
same,TGI,[29],3.25 µM
same,GI50,[30],6.44 µM
same,TGI,[30],28.4 µM
same,GI50,[31],4.77 µM
same,TGI,[31],21.2 µM
same,GI50,[32],2.4 µM
same,TGI,[32],7.86 µM
same,GI50,[33],5.15 µM
same,TGI,[33],25.8 µM
same,GI50,[34],3.2 µM
same,TGI,[34],11.5 µM
same,GI50,[35],1.77 µM
same,TGI,[35],5.98 µM
same,GI50,[36],13.5 µM
same,TGI,[36],32.6 µM
same,GI50,[37],2.02 µM
same,TGI,[37],4.26 µM
same,GI50,[38],11.5 µM
same,TGI,[38],26.9 µM
same,GI50,[39],4.56 µM
same,TGI,[39],16.4 µM
same,GI50,[40],0.807 µM
same,TGI,[40],2.24 µM
same,GI50,[41],2.84 µM
same,TGI,[41],25.5 µM
same,GI50,[42],3.16 µM
same,TGI,[42],30.6 µM
same,GI50,[43],3.2 µM
same,TGI,[43],17.1 µM
same,GI50,[44],1.88 µM
same,TGI,[44],3.74 µM
same,GI50,[45],3.88 µM
same,TGI,[45],41 µM
same,GI50,[46],3.16 µM
same,TGI,[46],11.1 µM
same,GI50,[47],7.3 µM
same,TGI,[47],21.6 µM
same,GI50,[48],1.54 µM
same,TGI,[48],3.77 µM
same,GI50,[49],8.66 µM
same,TGI,[49],38.3 µM
same,GI50,[50],2.23 µM
same,TGI,[50],5.32 µM
same,GI50,[51],3.11 µM
same,TGI,[51],11.7 µM
same,GI50,[52],3.42 µM
same,TGI,[52],14.3 µM
same,GI50,[53],14.4 µM
same,TGI,[53],29.8 µM
same,GI50,[54],3.44 µM
same,TGI,[54],11.6 µM
same,GI50,[55],13.4 µM
same,TGI,[55],33.8 µM
same,GI50,[56],2 µM
same,TGI,[56],4.33 µM
COc1cccc2c1O/C(=C\c1ncc([N+](=O)[O-])n1C)C2=O,GI50,[1],0.186 µM
same,TGI,[1],0.502 µM
same,GI50,[2],0.531 µM
same,TGI,[2],4.99 µM
same,GI50,[3],0.569 µM
same,TGI,[3],1.67 µM
same,GI50,[4],0.0747 µM
same,TGI,[4],1.7 µM
same,GI50,[5],0.239 µM
same,TGI,[5],0.607 µM
same,GI50,[6],0.303 µM
same,TGI,[6],2.46 µM
same,GI50,[7],1.32 µM
same,TGI,[7],3.51 µM
same,GI50,[8],0.911 µM
same,TGI,[8],4.21 µM
same,GI50,[9],0.422 µM
same,TGI,[9],6.22 µM
same,GI50,[10],1.04 µM
same,TGI,[10],> 21 µM
same,GI50,[11],1.39 µM
same,TGI,[11],3.97 µM
same,GI50,[12],1.39 µM
same,TGI,[12],3.42 µM
same,GI50,[13],0.31 µM
same,TGI,[13],1.57 µM
same,GI50,[14],0.277 µM
same,TGI,[14],2.9 µM
same,GI50,[15],0.375 µM
same,TGI,[15],3.89 µM
same,GI50,[16],< 0.0165 µM
same,TGI,[16],0.165 µM
same,GI50,[17],0.413 µM
same,TGI,[17],2.65 µM
same,GI50,[18],0.87 µM
same,GI50,[19],0.234 µM
same,TGI,[19],1.35 µM
same,GI50,[20],0.128 µM
same,TGI,[20],0.404 µM
same,GI50,[21],0.133 µM
same,TGI,[21],0.29 µM
same,GI50,[22],0.236 µM
same,TGI,[22],0.632 µM
same,GI50,[23],0.27 µM
same,TGI,[23],1.31 µM
same,GI50,[24],0.229 µM
same,TGI,[24],0.648 µM
same,GI50,[25],1.92 µM
same,TGI,[25],6.23 µM
same,GI50,[26],0.348 µM
same,TGI,[26],1.55 µM
same,GI50,[27],1.86 µM
same,TGI,[27],7.57 µM
same,GI50,[28],0.745 µM
same,TGI,[28],3.19 µM
same,GI50,[29],0.0825 µM
same,TGI,[29],0.691 µM
same,GI50,[30],1.7 µM
same,TGI,[30],5.82 µM
same,GI50,[32],0.509 µM
same,TGI,[32],3.45 µM
same,GI50,[33],0.203 µM
same,TGI,[33],0.603 µM
same,GI50,[34],8.25 µM
same,TGI,[34],52.9 µM
same,GI50,[35],0.949 µM
same,TGI,[35],4.11 µM
same,GI50,[36],0.224 µM
same,TGI,[36],0.563 µM
same,GI50,[37],0.154 µM
same,TGI,[37],0.599 µM
same,GI50,[38],1.27 µM
same,TGI,[38],4.49 µM
same,GI50,[39],0.254 µM
same,TGI,[39],1.1 µM
same,GI50,[40],0.467 µM
same,TGI,[40],5.04 µM
same,GI50,[41],1.47 µM
same,TGI,[41],4.81 µM
same,GI50,[42],0.0689 µM
same,TGI,[42],1.36 µM
same,GI50,[43],0.167 µM
same,GI50,[44],0.116 µM
same,TGI,[44],0.414 µM
same,GI50,[45],0.662 µM
same,GI50,[46],0.716 µM
same,TGI,[46],2.25 µM
same,GI50,[47],1.3 µM
same,TGI,[47],5.75 µM
same,GI50,[48],0.173 µM
same,TGI,[48],0.622 µM
same,GI50,[49],0.343 µM
same,TGI,[49],1.68 µM
same,GI50,[50],0.218 µM
same,TGI,[50],0.719 µM
same,GI50,[51],0.187 µM
same,TGI,[51],0.474 µM
same,GI50,[52],0.221 µM
same,TGI,[52],0.816 µM
same,GI50,[57],0.0537 µM
same,TGI,[57],0.384 µM
same,GI50,[53],0.242 µM
same,TGI,[53],0.607 µM
same,GI50,[54],0.266 µM
same,TGI,[54],0.809 µM
same,GI50,[55],0.2 µM
same,TGI,[55],0.579 µM
same,GI50,[56],0.0826 µM
same,TGI,[56],0.332 µM
